Converted amounts (≈) assume the structure as drawn.
How the values were obtained:
[1] = system: Mycobacterium tuberculosis; experiment: Antibacterial activity against Mycobacterium tuberculosis MDR5 measured at 7 to 14 days by broth microdilution method; type: functional
[2] = system: Mycobacterium tuberculosis; experiment: Antibacterial activity against Mycobacterium tuberculosis MDR3 measured at 7 to 14 days by broth microdilution method; type: functional
[3] = system: Mycobacterium tuberculosis; experiment: Antibacterial activity against Mycobacterium tuberculosis XDR2 measured at 7 to 14 days by broth microdilution method; type: functional
[4] = system: Mycobacterium tuberculosis; experiment: Antibacterial activity against Mycobacterium tuberculosis MDR6 measured at 7 to 14 days by broth microdilution method; type: functional
[5] = system: Mycobacterium tuberculosis; experiment: Antibacterial activity against Mycobacterium tuberculosis XDR1 measured at 7 to 14 days by broth microdilution method; type: functional
[6] = system: Mycobacterium tuberculosis; experiment: Antibacterial activity against Mycobacterium tuberculosis MDR8 measured at 7 to 14 days by broth microdilution method; type: functional
[7] = system: Mycobacterium tuberculosis; experiment: Antibacterial activity against Mycobacterium tuberculosis MDR7 measured at 7 to 14 days by broth microdilution method; type: functional
[8] = system: Mycobacterium tuberculosis; experiment: Antibacterial activity against Mycobacterium tuberculosis MDR2 measured at 7 to 14 days by broth microdilution method; type: functional
[9] = system: Mycobacterium tuberculosis; experiment: Antibacterial activity against Mycobacterium tuberculosis MDR4 measured at 7 to 14 days by broth microdilution method; type: functional
[10] = system: Mycobacterium tuberculosis; experiment: Antibacterial activity against Mycobacterium tuberculosis MDR1 measured at 7 to 14 days by broth microdilution method; type: functional
[11] = system: Mycobacterium tuberculosis; experiment: Antibacterial activity against Mycobacterium tuberculosis H37Rv measured at 10 to 14 days by broth microdilution method; type: functional
[12] = molecular target: T1, Biotin--[acetyl-CoA-carboxylase] ligase (Mycobacterium tuberculosis (strain ATCC 25618 / H37Rv), UniProt I6YFP0)
T1 sequence (I6YFP0 whole entry): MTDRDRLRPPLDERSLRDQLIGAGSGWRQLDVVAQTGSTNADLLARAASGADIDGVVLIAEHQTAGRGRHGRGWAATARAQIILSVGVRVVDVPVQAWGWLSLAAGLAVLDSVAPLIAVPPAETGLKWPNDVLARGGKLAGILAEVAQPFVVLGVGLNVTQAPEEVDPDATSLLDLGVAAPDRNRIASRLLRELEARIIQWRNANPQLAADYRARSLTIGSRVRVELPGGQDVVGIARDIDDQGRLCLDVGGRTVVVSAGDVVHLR

[13] = system: Mycobacterium tuberculosis H37Rv; experiment: Drug uptake in Mycobacterium tuberculosis H37Rv at 25 uM after 24 hrs by LC-MS/MS analysis; type: ADME, organism-based

SMILES | MIC90 [11] [µM] | Kd [12] [pM] | further results
Nc1ncnc2c1ncn2[C@@H]1O[C@H](CNS(=O)(=O)NC(=O)CCCC[C@@H]2SC[C@@H]3NC(=O)N[C@@H]32)[C@@H](O)[C@H]1O |  |  | MIC99 [1]: 0.16 µM (≈ 0.0915 µg/mL); MIC99 [2]: 0.16 µM (≈ 0.0915 µg/mL); MIC99 [3]: 0.16 µM (≈ 0.0915 µg/mL); MIC99 [4]: 0.16 µM (≈ 0.0915 µg/mL); MIC99 [5]: 0.16 µM (≈ 0.0915 µg/mL); MIC99 [6]: 0.16 µM (≈ 0.0915 µg/mL); MIC99 [7]: 0.16 µM (≈ 0.0915 µg/mL); MIC99 [8]: 0.16 µM (≈ 0.0915 µg/mL); MIC99 [9]: 0.16 µM (≈ 0.0915 µg/mL); MIC99 [10]: 0.16 µM (≈ 0.0915 µg/mL)
Nc1ncnc2c1ncn2[C@@H]1C[C@H](CNS(=O)(=O)NC(=O)CCCC[C@@H]2SC[C@@H]3NC(=O)N[C@@H]32)[C@@H](O)[C@H]1O | > 100 | 753 | 
[N-]=[N+]=N[C@@H]1[C@H](O)[C@@H](CNS(=O)(=O)NC(=O)CCCC[C@@H]2SC[C@@H]3NC(=O)N[C@@H]32)O[C@H]1n1cnc2c(N)ncnc21 | 3.12 (≈ 1.86 µg/mL) | 933 | 
Nc1ncnc2c1ncn2[C@@H]1O[C@H](CNS(=O)(=O)NC(=O)CCCC[C@@H]2SC[C@@H]3NC(=O)N[C@@H]32)[C@@H](O)[C@H]1N | 1.25 (≈ 0.713 µg/mL) | 627 | 
CCN(CC)CC.Nc1ncnc2c1ncn2[C@@H]1O[C@H](CNS(=O)(=O)NC(=O)CCCC[C@@H]2SC[C@@H]3NC(=O)N[C@@H]32)[C@@H](O)[C@H]1F | 1.25 | 614 | Drug uptake [13]: Active
Nc1ncnc2c1ncn2[C@H]1C=C[C@@H](CNS(=O)(=O)NC(=O)CCCC[C@@H]2SC[C@@H]3NC(=O)N[C@@H]32)C1 | 3.12 (≈ 1.67 µg/mL) | 2140 | 
CCN(CC)CC.Nc1ncnc2c1ncn2[C@@H]1O[C@H](COS(=O)(=O)NC(=O)CCCC[C@@H]2SC[C@@H]3NC(=O)N[C@@H]32)[C@@H](O)[C@@H]1F | 50 | 153 | Drug uptake [13]: Active
C[C@@]1(O)[C@H](O)[C@@H](COS(=O)(=O)NC(=O)CCCC[C@@H]2SC[C@@H]3NC(=O)N[C@@H]32)O[C@H]1n1cnc2c(N)ncnc21 | 50 (≈ 29.3 µg/mL) | 769 | 
Nc1ncnc2c1ncn2[C@H]1CNC[C@@H](COS(=O)(=O)NC(=O)CCCC[C@@H]2SC[C@@H]3NC(=O)N[C@@H]32)O1 | 3.12 (≈ 1.73 µg/mL) | 324 | 
Nc1ncnc2c1ncn2[C@@H]1O[C@H](CNS(=O)(=O)NC(=O)CCCC[C@@H]2SC[C@@H]3NC(=O)N[C@@H]32)C[C@H]1O | 0.78 (≈ 0.433 µg/mL) | 592 | 
Nc1ncnc2c1ncn2[C@H]1CC[C@@H](CNS(=O)(=O)NC(=O)CCCC[C@@H]2SC[C@@H]3NC(=O)N[C@@H]32)C1 | 1.56 (≈ 0.839 µg/mL) | 540 | 

Source: ChEMBL document CHEMBL3612042 (J Med Chem, 2015)
